Measured values from article PMC8391236, “Effect of Pterostilbene, a Natural Derivative of Resveratrol, in the Treatment of Colorectal Cancer through Top1/Tdp1-Mediated DNA Repair Pathway” (Cancers, 2021).

Key:
CL187 cells = test: Intracellular drug distribution (LC-MS/MS); assay type: in vitro ADME, Human; settings: CL187 cells incubated 6 h; nucleus, mitochondria, cytoplasm extracts
Procedure: CL187 cells were inoculated in 6-well plates, until the well was full of the cells. Then the supernatant was discarded, and the cells were washed with PBS three times. The cells were added with the different concentrations of PTE or RE and incubated for 6 h. After supernatant was discarded, the cells were washed with cold Hank’s solution for three times to terminate cell metabolism. Cell cytoplasm, nucleus, and mitochondria were extracted with the nuclear and mitochondrial extraction kit (KeyGEN BioTECH, Nanjing, China). Cells were resuspended with 1.5 mL Lysis Buffer and transferred to a 2 mL glass homogenizer for grinding (0–4 °C ice bath). The homogenate was collected and centrifuged at 800× g at 4 °C for 5 min. The nuclei were distributed in the precipitate, while the mitochondria were distributed in the supernatant. […] The protein concentration of each extract was detected by the BCA kit.
The drug contents of the extracted cell cytoplasm, nucleus, and mitochondria were determined by LC-MS/MS. […] The calibration range for the quantitation of each compound in all cellular components was 10 to 10,000 ng/mL. […]

siRNA-Top1 CL187 cells = test: Cell viability of Top1-silenced cells; assay type: cell-based, Human
Procedure: PTE or RE were dissolved in DMSO and diluted with culture medium to 1–100 μM. The final concentration of DMSO was less than 0.1%, and 0.1% DMSO as negative control. […] Exponentially growing cells were seeded in 96-well plates (5 × 10^3 cells/well) for 12 h. Various drugs were added separately and incubated for 24, 48, and 72 h. Cell viability was determined by CCK-8 (Beyotime Biotechnology, Shanghai, China) assay.

- concentration of drug in cells (maximum) (CL187 cells): more than 70.0 ng/μg
SMILES: COc1cc(/C=C/c2ccc(O)cc2)cc(OC)c1 [PTE, 3,5-dimethoxy-4′-hydroxy-trans-stilbene]
- IC50 (siRNA-Top1 CL187 cells; Homo sapiens, 24 h, siRNA-Top1 CL187, 24 h): 70 ± 16.2 µM
- IC50 (siRNA-Top1 CL187 cells; Homo sapiens, 48 h, siRNA-Top1 CL187, 48 h): 31.9 ± 8.11 µM
- IC50 (siRNA-Top1 CL187 cells; Homo sapiens, 72 h, siRNA-Top1 CL187, 72 h): 20.2 ± 4.1 µM
- IC50 (siRNA-Top1 CL187 cells; siRNA-Top1 CL187, 72 h): ~20 µM
